Laboratory results published in PubChem BioAssay (NCI).
“And” between values parts separate entries of the source, which are not always exact repeats. Identical values can stand only once.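 Cells were grown in 96-well plates and exposed to each compound for 48 hours at five concentrations; endpoints were interpolated linearly between bracketing concentrations, or set to the highest concentration if not reached. Here, GI50 denotes the concentration required for 50% inhibition of growth. Definition used: TGI = concentration required for complete inhibition of growth.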

Experiments:
Test in all cases: growth of human tumour cells (NCI), 48 h
A549 NSCLC = tested on: A549 NSCLC
HL-60(TB) leukemia = tested on: HL-60(TB) leukemia
HOP-62 NSCLC = tested on: HOP-62 NSCLC
NCI/ADR-RES ovarian = tested on: NCI/ADR-RES ovarian
OVCAR-3 ovarian = tested on: OVCAR-3 ovarian
SF-268 CNS = tested on: SF-268 CNS
SN12C renal = tested on: SN12C renal
UACC-62 melanoma = tested on: UACC-62 melanoma
SR leukemia = tested on: SR leukemia
BT-549 breast = tested on: BT-549 breast

For `COc1cc(C2c3[nH]c4ccccc4c3C[C@H]3COC(=O)N23)cc(OC)c1OC` (stereo partly specified), the GI50 (A549 NSCLC) was 0.0233 µM, the TGI (A549 NSCLC) was > 100 µM and the GI50 (HL-60(TB) leukemia) was < 0.01 µM. The TGI (HL-60(TB) leukemia) was 0.0961 µM and < 0.01 µM, the GI50 (HOP-62 NSCLC) was < 0.01 µM and the GI50 (NCI/ADR-RES ovarian) was 0.0586 µM and < 0.01 µM. The TGI (NCI/ADR-RES ovarian) was 0.265 µM and 0.0902 µM, the GI50 (OVCAR-3 ovarian) was < 0.01 µM and the GI50 (SF-268 CNS) was < 0.01 µM. For the same compound, the TGI (SF-268 CNS) was > 100 µM, the GI50 (SN12C renal) was 0.0471 µM and the TGI (SN12C renal) was > 100 µM. The GI50 (UACC-62 melanoma) was < 0.01 µM and the TGI (UACC-62 melanoma) was > 100 µM.

`CC1CC[C@]2(C(=O)O)CCC3(COC(=O)/C=C\c4ccc(O)cc4)C(=CCC4[C@@]5(C)CC[C@H](O)C(C)(C)C5CC[C@]43C)[C@@H]2[C@H]1C` (stereo partly specified) showed a TGI (A549 NSCLC) of 26.3 µM, a TGI (HL-60(TB) leukemia) of 72.8 µM and a TGI (OVCAR-3 ovarian) of 37.1 µM. For the same compound, the TGI (SF-268 CNS) was 30.8 µM, the TGI (SN12C renal) was 54.2 µM and the TGI (SR leukemia) was 76.1 µM. The TGI (UACC-62 melanoma) was 32.6 µM.

In the case of `C=C1C(=O)O[C@H]2[C@H]1CC/C(CNC(=O)Cc1c[nH]c3ccccc13)=C\CC[C@@]1(C)O[C@@H]21`, the GI50 (A549 NSCLC) is reported as 14.9 µM, the TGI (A549 NSCLC) is reported as 33.3 µM and the GI50 (BT-549 breast) is reported as 3.04 µM. It also gave a TGI (BT-549 breast) of 15.8 µM, a GI50 (HL-60(TB) leukemia) of 0.314 µM and a TGI (HL-60(TB) leukemia) of 1.02 µM. It also gave a GI50 (HOP-62 NSCLC) of 5.06 µM, a TGI (HOP-62 NSCLC) of 19.7 µM and a GI50 (NCI/ADR-RES ovarian) of 19 µM. It also gave a TGI (NCI/ADR-RES ovarian) of 65.6 µM, a GI50 (OVCAR-3 ovarian) of 0.386 µM and a TGI (OVCAR-3 ovarian) of 1.44 µM. It also gave a GI50 (SF-268 CNS) of 2.62 µM, a TGI (SF-268 CNS) of 16.3 µM and a GI50 (SN12C renal) of 1.91 µM. For the same compound, the TGI (SN12C renal) was 18.3 µM, the GI50 (SR leukemia) was 0.314 µM and the TGI (SR leukemia) was 2.84 µM.

For `O=C(Nc1ccc(Cl)cc1Cl)C1C(=O)N(c2ccc(Cl)cc2Cl)C(=O)/C1=N\Nc1ccc([N+](=O)[O-])cc1[N+](=O)[O-]` (stereo unspecified), the TGI (A549 NSCLC) was > 100 µM, the TGI (HL-60(TB) leukemia) was > 100 µM and the TGI (HOP-62 NSCLC) was > 100 µM. The TGI (OVCAR-3 ovarian) was > 100 µM, the TGI (SF-268 CNS) was > 100 µM and the TGI (SN12C renal) was > 100 µM. The TGI (UACC-62 melanoma) was > 100 µM.

For `CC1CC(C2=CC=CCS2)=Nc2ccccc2S1` (stereo unspecified), the TGI (A549 NSCLC) was > 100 µM, the TGI (HL-60(TB) leukemia) was > 100 µM and the TGI (HOP-62 NSCLC) was > 100 µM. For the same compound, the TGI (OVCAR-3 ovarian) was > 100 µM, the TGI (SF-268 CNS) was > 100 µM and the TGI (SN12C renal) was > 100 µM. The TGI (UACC-62 melanoma) was > 100 µM.

In the case of `Cc1ccc(S(=O)(=O)N[C@H](C(=O)O)c2ccccc2)cc1`, the TGI (A549 NSCLC) is reported as > 100 µM, the TGI (HL-60(TB) leukemia) is reported as > 100 µM and the TGI (OVCAR-3 ovarian) is reported as > 100 µM. For the same compound, the TGI (SF-268 CNS) was > 100 µM, the TGI (SN12C renal) was > 100 µM and the TGI (UACC-62 melanoma) was > 100 µM.

`Cc1cccc(NC(=O)CCc2ccc(N3C(N)=NC(N)=NC3(C)C)cc2)c1` was tested, and the GI50 (A549 NSCLC) was 0.188 µM, the TGI (A549 NSCLC) was > 29 µM and the GI50 (BT-549 breast) was 10.9 µM. The TGI (BT-549 breast) was > 100 µM, the GI50 (HL-60(TB) leukemia) was 0.641 µM and the TGI (HL-60(TB) leukemia) was > 100 µM. For the same compound, the GI50 (HOP-62 NSCLC) was 16.9 µM, the TGI (HOP-62 NSCLC) was > 100 µM and the GI50 (NCI/ADR-RES ovarian) was > 100 µM. The TGI (NCI/ADR-RES ovarian) was > 100 µM, the GI50 (OVCAR-3 ovarian) was 6.76 µM and the TGI (OVCAR-3 ovarian) was > 100 µM. For the same compound, the GI50 (SF-268 CNS) was 0.547 µM, the TGI (SF-268 CNS) was > 100 µM and the GI50 (SN12C renal) was 0.575 µM. For the same compound, the TGI (SN12C renal) was > 100 µM, the GI50 (UACC-62 melanoma) was 2.37 µM and the TGI (UACC-62 melanoma) was > 100 µM.

In the case of `O=C(Nc1ccccc1-c1n[nH]c(=S)[nH]c1=O)C(F)(F)F`, the TGI (A549 NSCLC) is reported as > 100 µM, the TGI (HOP-62 NSCLC) is reported as > 100 µM and the TGI (OVCAR-3 ovarian) is reported as > 100 µM. For the same compound, the TGI (SF-268 CNS) was > 100 µM, the TGI (SN12C renal) was > 100 µM and the TGI (SR leukemia) was > 100 µM. For the same compound, the TGI (UACC-62 melanoma) was > 100 µM.

`Cc1c(N2CCCC2)cc2c(c1NC(=O)c1ccccc1Cl)C(C)(C)CC2(C)C` showed a TGI (A549 NSCLC) of 27.6 µM, a TGI (BT-549 breast) of 32 µM and a TGI (HOP-62 NSCLC) of 28.4 µM. The TGI (NCI/ADR-RES ovarian) was 29.5 µM, the TGI (OVCAR-3 ovarian) was 21.3 µM and the TGI (SF-268 CNS) was 30.6 µM. It also gave a TGI (SN12C renal) of 33.2 µM, a TGI (SR leukemia) of 38.1 µM and a TGI (UACC-62 melanoma) of 23.2 µM.

For `ON/N=C/c1cc2c(cc1Br)OCO2`, the TGI (A549 NSCLC) was > 386 µM, the TGI (HL-60(TB) leukemia) was > 386 µM and the TGI (HOP-62 NSCLC) was > 386 µM. For the same compound, the TGI (OVCAR-3 ovarian) was > 386 µM, the TGI (SF-268 CNS) was > 386 µM and the TGI (SN12C renal) was > 386 µM. The TGI (SR leukemia) was > 386 µM and the TGI (UACC-62 melanoma) was > 386 µM.
